Tests used:
[1] = target: T1, TRPV3 mutant W692C (Homo sapiens, UniProt Q8NET8, W692C); test: Whole-cell recording of gain-of-function TRPV3 mutant W692C; type: cell-based; settings: concentration gradients of HCQ, ± 80 mV
T1 construct: YFP or GFP; expressed in transfected cells; host or cells: HEK293T
T1 sequence (Q8NET8 1-790 W692C): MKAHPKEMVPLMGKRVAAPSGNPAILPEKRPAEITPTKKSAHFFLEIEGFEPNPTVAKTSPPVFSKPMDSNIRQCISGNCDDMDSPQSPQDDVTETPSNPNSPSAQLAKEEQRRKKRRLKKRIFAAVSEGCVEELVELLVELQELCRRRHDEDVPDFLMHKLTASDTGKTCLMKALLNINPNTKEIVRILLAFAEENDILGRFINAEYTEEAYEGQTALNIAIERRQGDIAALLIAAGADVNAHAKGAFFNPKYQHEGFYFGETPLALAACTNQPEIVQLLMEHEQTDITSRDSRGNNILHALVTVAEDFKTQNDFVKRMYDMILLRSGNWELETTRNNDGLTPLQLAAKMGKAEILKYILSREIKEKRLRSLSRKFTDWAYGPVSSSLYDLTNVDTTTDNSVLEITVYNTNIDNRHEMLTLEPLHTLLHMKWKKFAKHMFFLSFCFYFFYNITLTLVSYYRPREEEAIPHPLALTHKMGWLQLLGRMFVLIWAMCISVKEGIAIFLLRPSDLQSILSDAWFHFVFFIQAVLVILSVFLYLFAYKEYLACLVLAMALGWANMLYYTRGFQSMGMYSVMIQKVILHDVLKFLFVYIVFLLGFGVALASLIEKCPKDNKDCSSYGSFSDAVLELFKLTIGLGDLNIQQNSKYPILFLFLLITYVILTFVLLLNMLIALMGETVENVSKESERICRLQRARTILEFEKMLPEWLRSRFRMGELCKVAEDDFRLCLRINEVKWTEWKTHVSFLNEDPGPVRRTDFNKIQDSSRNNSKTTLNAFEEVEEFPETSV
Method: To test the effect of HCQ on carvacrol-induced skin inflammation, we evaluated the inhibitory effect of HCQ on TRPV3 activated by carvacrol in vitro.
Figure 5 HCQ can attenuate mice back skin lesions induced by TRPV3 agonist carvacrol.A, representative whole-cell recording of TRPV3 in response to 1 mM carvacrol (Car), the mixture of 1 mM Car, and concentration gradients of HCQ with the holding potential of ± 80 mV. B, concentration–response curve of Car and HCQ on TRPV3 channels fitted by Hill equation. Data were shown as mean ± SEM (n = 6 cells). C, representative whole-cell recording of W692C mutants in response to concentration gradients of HCQ with the holding potential of ± 80 mV. D, concentration–response curve of HCQ on W692C mutants fitted by Hill equation. Data were shown as mean ± SEM (n = 4 cells). E, paradigm of generation of AD-like mice model induced by Car. […] A 200 μl volume of drug was applied to each mouse. Green lines indicate the thickness of the epidermis. Upper panel, the scale bar represents 2 cm; bottom panel, scale bar represents 100 μm. G–I, quantification of thickness (G), erythema (H), dryness, and scaling (I), (n = 6 mice, mean ± SEM), thickness: F (3, 20) = 20.68, p < 0.0001; erythema: F (3, 20) = 55.10, p < 0.0001; dryness and scaling: F (3, 20) = 39.61, p < 0.0001 by one-way ANOVA followed using Tukey's post hoc test. […]

[2] = target: T2, mTRPV1 (Mus musculus, UniProt Q704Y3); test: Whole-cell current recordings, mTRPV1; type: cell-based, murine; settings: 100 μM HCQ; current activated by 5 μM capsaicin
T2 construct: YFP or GFP; expressed in transfected cells; host or cells: HEK293T
Method: To elucidate the specificity of HCQ inhibition on TRPV3, we conducted whole-cell current recordings on other known pruritus-related TRP channels, such as hTRPA1, mTRPV1, mTRPV4, and mTRPM8 (Fig. 3, A and F). […] Because of the relatively larger inhibition of HCQ on mTRPM8 current, we tested the concentration dependence of HCQ on mTRPM8 channels.
HEK293T cells are cultured using Dulbecco's modified Eagle's medium containing 10% fetal bovine serum and 1% penicillin-streptomycin in a cell incubator with 5% CO2 at 37 °C. Plasmids of murine TRPV1, TRPV4, TRPM8, and human TRPV3, TRPA1 are labeled with YFP or GFP as indicators for subsequent electrophysiological recordings. Complementary DNA constructs of ion channels were transiently transfected with Lipofectamine 3000 (Invitrogen). And 12 to 18 h after transient transfection, electrophysiological recordings were performed.
Patch-clamp recordings were carried out with a HEKA EPC10 amplifier controlled by PatchMaster software (HEKA; https://www.heka.com/products/products_main.html#soft_pm) ([36]). Patch pipettes were prepared from borosilicate glass and fire-polished to the resistance of 3 to 8 MΩ by P-97 puller for whole-cell recordings. For single-channel recordings, patch pipettes were fire-polished to a higher resistance of 6 to 10 MΩ. […]

T2 sequence (Q704Y3 whole entry): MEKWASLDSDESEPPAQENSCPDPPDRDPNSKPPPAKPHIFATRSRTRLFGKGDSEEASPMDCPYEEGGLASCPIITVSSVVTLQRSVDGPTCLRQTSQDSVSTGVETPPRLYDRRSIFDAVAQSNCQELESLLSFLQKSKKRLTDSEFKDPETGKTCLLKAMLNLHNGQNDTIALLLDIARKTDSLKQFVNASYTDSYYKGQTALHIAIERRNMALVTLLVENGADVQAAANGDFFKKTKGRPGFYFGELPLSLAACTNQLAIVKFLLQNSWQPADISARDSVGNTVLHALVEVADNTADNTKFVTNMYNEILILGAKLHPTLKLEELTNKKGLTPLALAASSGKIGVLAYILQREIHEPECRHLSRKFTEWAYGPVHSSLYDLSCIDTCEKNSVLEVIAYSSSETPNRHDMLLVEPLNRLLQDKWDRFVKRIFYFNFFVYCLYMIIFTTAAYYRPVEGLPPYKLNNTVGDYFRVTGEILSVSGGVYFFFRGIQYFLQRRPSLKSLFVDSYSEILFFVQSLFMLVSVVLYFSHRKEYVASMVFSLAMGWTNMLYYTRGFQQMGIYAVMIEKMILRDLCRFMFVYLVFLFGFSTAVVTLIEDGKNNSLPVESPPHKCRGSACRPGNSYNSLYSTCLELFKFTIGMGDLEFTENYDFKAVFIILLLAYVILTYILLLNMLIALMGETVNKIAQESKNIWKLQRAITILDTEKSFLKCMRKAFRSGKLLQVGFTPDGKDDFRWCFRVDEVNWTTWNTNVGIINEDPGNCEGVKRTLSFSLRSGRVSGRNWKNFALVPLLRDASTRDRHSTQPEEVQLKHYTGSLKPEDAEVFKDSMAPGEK

## CCN(CCO)CCCC(C)Nc1ccnc2cc(Cl)ccc12 (centres unmarked) [HCQ, hydroxychloroquine]
[1]
  effect on activity of gain-of-function TRPV3 mutant W692C: inhibited
[2]
  reduction of mTRPV1 current: 12.37% ± 5.32%

— article PMC11460631, “Inhibition of transient receptor potential vanilloid 3 channels by antimalarial hydroxychloroquine alleviates TRPV3-dependent dermatitis” (The Journal of Biological Chemistry, 2024)
